Measurements from PubChem BioAssay (NCI).
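Values below derive from 48-hour exposures of cells grown in 96-well plates, with endpoints linearly interpolated between the two concentrations bracketing the appropriate inhibition level. At the TGI there is no net growth.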

What was measured:
Experiment in all cases: growth of human tumour cells (NCI), 48 h
SN12C renal = test system: SN12C renal
U251 CNS = test system: U251 CNS
IGROV1 ovarian = test system: IGROV1 ovarian
HS 578T breast = test system: HS 578T breast
NCI-H460 lung = test system: NCI-H460 lung
MCF7 breast = test system: MCF7 breast
MOLT-4 leukemia = test system: MOLT-4 leukemia
MALME-3M melanoma = test system: MALME-3M melanoma
SF-539 CNS = test system: SF-539 CNS
SF-268 CNS = test system: SF-268 CNS
NCI-H522 lung = test system: NCI-H522 lung
UO-31 renal = test system: UO-31 renal
HCT-116 colon = test system: HCT-116 colon
CCRF-CEM leukemia = test system: CCRF-CEM leukemia
HL-60(TB) leukemia = test system: HL-60(TB) leukemia
786-0 renal = test system: 786-0 renal
MDA-MB-231 breast = test system: MDA-MB-231 breast
OVCAR-5 ovarian = test system: OVCAR-5 ovarian
ACHN renal = test system: ACHN renal
OVCAR-3 ovarian = test system: OVCAR-3 ovarian
T-47D breast = test system: T-47D breast
UACC-257 melanoma = test system: UACC-257 melanoma
NCI-H23 lung = test system: NCI-H23 lung
PC-3 prostate = test system: PC-3 prostate
SNB-19 CNS = test system: SNB-19 CNS
A549 NSCLC = test system: A549 NSCLC
HOP-62 NSCLC = test system: HOP-62 NSCLC
RXF 393 renal = test system: RXF 393 renal
OVCAR-8 ovarian = test system: OVCAR-8 ovarian
SK-MEL-28 melanoma = test system: SK-MEL-28 melanoma
UACC-62 melanoma = test system: UACC-62 melanoma
BT-549 breast = test system: BT-549 breast
RPMI-8226 leukemia = test system: RPMI-8226 leukemia
HCC-2998 colon = test system: HCC-2998 colon
HCT-15 colon = test system: HCT-15 colon
SNB-75 CNS = test system: SNB-75 CNS
TK-10 renal = test system: TK-10 renal
SR leukemia = test system: SR leukemia
EKVX NSCLC = test system: EKVX NSCLC
HT29 colon = test system: HT29 colon
NCI-H226 lung = test system: NCI-H226 lung
DU-145 prostate = test system: DU-145 prostate
M14 melanoma = test system: M14 melanoma
SF-295 CNS = test system: SF-295 CNS
KM12 colon = test system: KM12 colon
LOX IMVI melanoma = test system: LOX IMVI melanoma
A498 renal = test system: A498 renal
SK-MEL-5 melanoma = test system: SK-MEL-5 melanoma
OVCAR-4 ovarian = test system: OVCAR-4 ovarian
HOP-92 NSCLC = test system: HOP-92 NSCLC
SW-620 colon = test system: SW-620 colon
K-562 leukemia = test system: K-562 leukemia
SK-MEL-2 melanoma = test system: SK-MEL-2 melanoma
MDA-N = test system: MDA-N
CAKI-1 renal = test system: CAKI-1 renal

Measured: TGI

CCCC(=O)N(C)N=Nc1ccc(C(=O)OCC)cc1
> 100 µM: all assays above
